# Experiments:
# Test in all cases: radiometric filter-binding kinase assay, Kinase HotSpot
# Settings in all cases: compound 0.5 µM; ATP 10 µM
# DYRK1B (human) = DYRK1B (human) (UniProt Q9Y463)
# LTK (human) = LTK (human) (UniProt P29376)
# STK33 (human) = STK33 (human) (UniProt Q9BYT3)
# PRKCH (human) = PRKCH (human) (UniProt P24723)
# CDK1 CCNB1 (human) = CDK1 CCNB1 (human) (UniProt P06493+P14635)
# CDK2 CCNE1 (human) = CDK2 CCNE1 (human) (UniProt P24941+P24864)
# CDK2 CCNA2 (human) = CDK2 CCNA2 (human) (UniProt P24941+P20248)
# MAP3K7 TAB1 (human) = MAP3K7 TAB1 (human) (UniProt O43318+Q15750)
# FRK (human) = FRK (human) (UniProt P42685)
# CDK4 CCND1 (human) = CDK4 CCND1 (human) (UniProt P24385+P11802)
# CDK6 CCND3 (human) = CDK6 CCND3 (human) (UniProt P30281+Q00534)
# CDK1 CCNA2 (human) = CDK1 CCNA2 (human) (UniProt P06493+P20248)
# CDK9 CCNT1 (human) = CDK9 CCNT1 (human) (UniProt P50750+O60563)
# CDK6 CCND1 (human) = CDK6 CCND1 (human) (UniProt Q00534+P24385)
# CDK5 CDK5R1 p35 (human) = CDK5 CDK5R1 p35 (human) (UniProt Q00535+Q15078)
# CDK9 CCNK (human) = CDK9 CCNK (human) (UniProt O75909+P50750)
# CDK7 CCNH MNAT1 (human) = CDK7 CCNH MNAT1 (human) (UniProt P50613+P51948+P51946)
# CDK5 CDK5R1 p25 (human) = CDK5 CDK5R1 p25 (human) (UniProt Q00535+Q15078)
# CDK4 CCND3 (human) = CDK4 CCND3 (human) (UniProt P30281+P11802)
# EPHB2 (human) = EPHB2 (human) (UniProt P29323)
# CDK3 CCNE1 (human) = CDK3 CCNE1 (human) (UniProt Q00526+P24864)
# TLK2 (human) = TLK2 (human) (UniProt Q86UE8)
# Sequence of STK33 (human) (Q9BYT3 whole entry, looked up): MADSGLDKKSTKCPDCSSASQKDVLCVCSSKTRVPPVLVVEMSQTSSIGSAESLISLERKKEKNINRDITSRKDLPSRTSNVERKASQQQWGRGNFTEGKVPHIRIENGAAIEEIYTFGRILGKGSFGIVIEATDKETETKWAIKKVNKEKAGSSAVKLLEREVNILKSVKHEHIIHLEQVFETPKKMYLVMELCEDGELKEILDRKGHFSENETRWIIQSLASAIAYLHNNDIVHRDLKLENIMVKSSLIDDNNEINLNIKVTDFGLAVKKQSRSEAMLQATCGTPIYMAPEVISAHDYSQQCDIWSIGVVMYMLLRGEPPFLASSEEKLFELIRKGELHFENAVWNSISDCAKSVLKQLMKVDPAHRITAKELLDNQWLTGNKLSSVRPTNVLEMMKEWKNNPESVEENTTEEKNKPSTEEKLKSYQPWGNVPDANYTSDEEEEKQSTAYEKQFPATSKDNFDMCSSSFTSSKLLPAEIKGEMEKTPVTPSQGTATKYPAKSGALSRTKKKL
# Sequence of DYRK1B (human) (Q9Y463 whole entry, looked up): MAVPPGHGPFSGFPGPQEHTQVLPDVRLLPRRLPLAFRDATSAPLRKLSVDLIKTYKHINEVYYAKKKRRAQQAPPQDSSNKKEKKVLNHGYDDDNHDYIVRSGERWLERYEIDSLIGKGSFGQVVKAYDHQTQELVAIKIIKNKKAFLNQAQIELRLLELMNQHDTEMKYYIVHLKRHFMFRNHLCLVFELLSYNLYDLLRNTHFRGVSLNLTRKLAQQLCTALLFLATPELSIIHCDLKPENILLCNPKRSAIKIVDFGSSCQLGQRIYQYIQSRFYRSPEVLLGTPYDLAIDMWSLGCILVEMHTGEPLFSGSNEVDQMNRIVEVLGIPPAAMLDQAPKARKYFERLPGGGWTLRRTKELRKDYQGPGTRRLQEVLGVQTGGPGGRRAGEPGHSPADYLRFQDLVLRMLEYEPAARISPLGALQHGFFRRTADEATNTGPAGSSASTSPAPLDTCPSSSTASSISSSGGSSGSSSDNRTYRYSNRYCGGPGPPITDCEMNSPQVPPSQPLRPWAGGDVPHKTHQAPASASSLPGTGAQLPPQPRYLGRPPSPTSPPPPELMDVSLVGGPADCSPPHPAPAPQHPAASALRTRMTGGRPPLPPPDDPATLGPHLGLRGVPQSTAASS
# Sequence of PRKCH (human) (P24723 whole entry, looked up): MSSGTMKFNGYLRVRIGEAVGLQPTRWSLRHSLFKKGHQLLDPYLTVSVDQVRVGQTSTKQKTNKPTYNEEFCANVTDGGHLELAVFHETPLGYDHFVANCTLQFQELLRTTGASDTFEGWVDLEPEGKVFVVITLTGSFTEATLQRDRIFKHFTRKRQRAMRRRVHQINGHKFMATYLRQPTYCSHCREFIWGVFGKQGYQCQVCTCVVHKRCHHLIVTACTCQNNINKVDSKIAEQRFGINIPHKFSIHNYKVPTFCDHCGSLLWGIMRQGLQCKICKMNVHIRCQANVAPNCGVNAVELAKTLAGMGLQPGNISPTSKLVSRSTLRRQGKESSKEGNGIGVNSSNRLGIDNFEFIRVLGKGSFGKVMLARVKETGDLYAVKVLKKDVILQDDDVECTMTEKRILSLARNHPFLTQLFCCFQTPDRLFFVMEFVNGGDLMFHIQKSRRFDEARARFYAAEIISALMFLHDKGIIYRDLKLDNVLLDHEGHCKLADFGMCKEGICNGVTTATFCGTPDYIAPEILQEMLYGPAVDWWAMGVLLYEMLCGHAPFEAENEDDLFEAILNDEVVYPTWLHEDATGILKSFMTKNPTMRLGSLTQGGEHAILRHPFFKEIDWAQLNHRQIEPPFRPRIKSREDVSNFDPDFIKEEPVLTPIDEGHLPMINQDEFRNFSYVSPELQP
# Sequence of CDK2 CCNE1 (human) (P24864 whole entry, looked up, other chains not shown): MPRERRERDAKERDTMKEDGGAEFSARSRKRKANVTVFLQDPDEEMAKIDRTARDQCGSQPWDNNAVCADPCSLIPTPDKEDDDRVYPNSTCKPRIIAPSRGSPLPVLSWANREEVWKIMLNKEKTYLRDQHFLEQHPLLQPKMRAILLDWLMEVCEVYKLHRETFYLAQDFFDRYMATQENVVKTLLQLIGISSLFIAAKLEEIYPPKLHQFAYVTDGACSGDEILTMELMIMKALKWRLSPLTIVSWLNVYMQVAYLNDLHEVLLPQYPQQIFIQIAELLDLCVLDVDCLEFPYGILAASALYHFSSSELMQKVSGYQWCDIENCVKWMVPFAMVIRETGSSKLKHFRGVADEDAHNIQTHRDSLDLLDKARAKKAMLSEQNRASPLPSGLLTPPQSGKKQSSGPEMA
# Sequence of CDK3 CCNE1 (human) (P24864 whole entry, looked up): as the sequence (P24864 whole entry, looked up, other chains not shown) above
# Sequence of CDK3 CCNE1 (human) (Q00526 whole entry, looked up): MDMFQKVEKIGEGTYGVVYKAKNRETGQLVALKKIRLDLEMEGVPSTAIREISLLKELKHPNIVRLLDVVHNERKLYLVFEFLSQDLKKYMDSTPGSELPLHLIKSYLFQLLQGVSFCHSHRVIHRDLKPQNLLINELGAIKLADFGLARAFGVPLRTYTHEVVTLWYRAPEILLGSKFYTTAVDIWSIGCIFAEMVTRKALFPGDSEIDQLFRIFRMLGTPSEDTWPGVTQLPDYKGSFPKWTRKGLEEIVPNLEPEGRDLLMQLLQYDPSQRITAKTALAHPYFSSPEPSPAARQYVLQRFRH
# Sequence of CDK5 CDK5R1 p25 (human) (Q00535 whole entry, looked up): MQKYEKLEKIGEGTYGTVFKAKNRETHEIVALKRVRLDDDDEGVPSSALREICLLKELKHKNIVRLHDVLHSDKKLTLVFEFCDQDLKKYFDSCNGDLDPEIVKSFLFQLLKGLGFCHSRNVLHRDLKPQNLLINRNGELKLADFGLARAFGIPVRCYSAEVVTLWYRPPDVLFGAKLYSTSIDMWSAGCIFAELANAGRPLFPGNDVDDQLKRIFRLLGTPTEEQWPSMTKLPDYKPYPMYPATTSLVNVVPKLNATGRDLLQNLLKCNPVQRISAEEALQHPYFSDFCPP
# Sequence of CDK5 CDK5R1 p25 (human) (Q15078 whole entry, looked up): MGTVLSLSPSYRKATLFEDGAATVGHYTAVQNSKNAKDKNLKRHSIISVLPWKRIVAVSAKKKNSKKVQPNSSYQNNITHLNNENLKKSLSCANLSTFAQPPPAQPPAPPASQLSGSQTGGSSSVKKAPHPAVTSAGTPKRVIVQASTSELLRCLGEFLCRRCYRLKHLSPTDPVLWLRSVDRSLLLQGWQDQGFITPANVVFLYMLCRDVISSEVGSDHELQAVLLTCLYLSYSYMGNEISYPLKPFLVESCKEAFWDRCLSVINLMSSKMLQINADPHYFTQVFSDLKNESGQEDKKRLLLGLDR
# Sequence of CDK7 CCNH MNAT1 (human) (P50613 whole entry, looked up): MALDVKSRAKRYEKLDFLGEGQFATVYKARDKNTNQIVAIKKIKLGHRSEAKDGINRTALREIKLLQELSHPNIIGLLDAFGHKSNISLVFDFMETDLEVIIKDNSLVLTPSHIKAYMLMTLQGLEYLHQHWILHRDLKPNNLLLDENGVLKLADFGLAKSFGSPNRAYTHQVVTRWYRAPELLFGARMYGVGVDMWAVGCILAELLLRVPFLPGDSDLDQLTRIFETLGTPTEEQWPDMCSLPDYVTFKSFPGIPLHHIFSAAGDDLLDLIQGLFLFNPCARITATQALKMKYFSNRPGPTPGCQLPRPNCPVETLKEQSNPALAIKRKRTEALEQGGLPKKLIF
# Sequence of CDK7 CCNH MNAT1 (human) (P51946 whole entry, looked up): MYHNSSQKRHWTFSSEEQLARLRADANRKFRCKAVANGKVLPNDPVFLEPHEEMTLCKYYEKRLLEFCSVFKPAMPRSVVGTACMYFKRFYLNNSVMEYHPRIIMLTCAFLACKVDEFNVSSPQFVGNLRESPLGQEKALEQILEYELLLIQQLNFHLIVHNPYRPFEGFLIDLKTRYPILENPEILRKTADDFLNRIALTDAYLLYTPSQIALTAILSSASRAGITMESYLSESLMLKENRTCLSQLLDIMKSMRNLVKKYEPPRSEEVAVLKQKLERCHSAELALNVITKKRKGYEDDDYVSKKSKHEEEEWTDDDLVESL
# Sequence of CDK7 CCNH MNAT1 (human) (P51948 whole entry, looked up): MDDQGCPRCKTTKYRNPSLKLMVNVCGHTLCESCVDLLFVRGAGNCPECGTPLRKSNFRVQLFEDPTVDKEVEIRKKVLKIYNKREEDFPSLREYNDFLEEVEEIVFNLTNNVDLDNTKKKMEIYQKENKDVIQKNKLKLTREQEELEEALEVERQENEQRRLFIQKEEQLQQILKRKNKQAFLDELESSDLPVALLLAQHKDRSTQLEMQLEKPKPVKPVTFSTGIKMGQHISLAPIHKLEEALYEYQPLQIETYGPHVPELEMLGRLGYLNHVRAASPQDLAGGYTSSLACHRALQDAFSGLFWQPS
compound,measurement,setting,value
CO[C@H]1[C@@H](OC)C[C@H](C)[C@@H](OC)C2=CC(=O)C=C(NC(=O)/C(C)=C\C=C/[C@H](OC)[C@@H](OC(N)=O)/C(C)=C\[C@@H]1C)C2=O,residual activity,DYRK1B (human),104%
same,residual activity,LTK (human),98.5%
same,residual activity,STK33 (human),97%
same,residual activity,PRKCH (human),95.3%
Cc1nc(Nc2ncc(C(=O)Nc3c(C)cccc3Cl)s2)cc(N2CCN(CCO)CC2)n1,residual activity,CDK1 CCNB1 (human),93.9%
same,residual activity,CDK2 CCNE1 (human),95.9%
same,residual activity,CDK2 CCNA2 (human),92.4%
same,residual activity,MAP3K7 TAB1 (human),87.3%
same,residual activity,FRK (human),-0.878%
same,residual activity,CDK4 CCND1 (human),94.4%
same,residual activity,CDK6 CCND3 (human),103%
same,residual activity,CDK1 CCNA2 (human),96.3%
same,residual activity,CDK9 CCNT1 (human),84.1%
same,residual activity,CDK6 CCND1 (human),95.5%
same,residual activity,CDK5 CDK5R1 p35 (human),101%
same,residual activity,CDK9 CCNK (human),104%
same,residual activity,CDK7 CCNH MNAT1 (human),112%
same,residual activity,CDK5 CDK5R1 p25 (human),102%
same,residual activity,CDK4 CCND3 (human),99.1%
same,residual activity,EPHB2 (human),-0.191%
same,residual activity,PRKCH (human),106%
same,residual activity,CDK3 CCNE1 (human),91.7%
O=C(Nc1nc2ccccc2n1CCN1CCOCC1)c1cccc([N+](=O)[O-])c1,residual activity,PRKCH (human),94.9%
Cc1cc(C)c(/C=C2\C(=O)Nc3ccccc32)[nH]1,residual activity,TLK2 (human),98.5%
same,residual activity,PRKCH (human),94.7%
O=[N+]([O-])/C=C/c1ccc2c(c1)OCO2,residual activity,DYRK1B (human),112%
same,residual activity,LTK (human),96.4%
same,residual activity,STK33 (human),94.2%
same,residual activity,PRKCH (human),103%
CC(C)n1cnc2c(NCc3ccccc3)nc(NCCCO)nc21,residual activity,PRKCH (human),77%
COC[C@H]1OC(=O)c2coc3c2[C@@]1(C)C1=C(C3=O)[C@@H]2CCC(=O)[C@@]2(C)C[C@H]1OC(C)=O,residual activity,CDK1 CCNB1 (human),101%
same,residual activity,DYRK1B (human),100%
same,residual activity,CDK2 CCNE1 (human),105%
same,residual activity,CDK2 CCNA2 (human),93.5%
same,residual activity,MAP3K7 TAB1 (human),97.2%
same,residual activity,CDK4 CCND1 (human),94.8%
same,residual activity,CDK6 CCND3 (human),85.8%
same,residual activity,CDK1 CCNA2 (human),97%
same,residual activity,CDK9 CCNT1 (human),93.7%
same,residual activity,CDK6 CCND1 (human),90.1%
same,residual activity,STK33 (human),88.2%
same,residual activity,CDK5 CDK5R1 p35 (human),88.7%
same,residual activity,CDK9 CCNK (human),107%
same,residual activity,CDK7 CCNH MNAT1 (human),93.3%
same,residual activity,CDK5 CDK5R1 p25 (human),87.6%
same,residual activity,CDK4 CCND3 (human),98.8%
same,residual activity,PRKCH (human),100%
same,residual activity,CDK3 CCNE1 (human),95.2%

# Source: the kinase profiling compilation of Christmann-Franck et al. (2016)
